Experimental data taken from article PMC2665923 (Journal of medicinal chemistry, 2009).
Entries after “also recorded” stand apart in the source; their conditions may differ.

Assays:
Storage stability at rt = assay type: physicochemical; conditions: few weeks at rt
[1] = tested on: BXPC3 and HupT3 pancreatic cancer cells; test: Apoptosis by Hoechst staining; assay type: cell-based; conditions: 5 (5 μM), 26 (5 μM), 27 (20 μM), 36 h
[2] = tested on: pancreatic cancer cells (MiaPaCa-2, BXPC3, HupT3); test: Pancreatic cancer cell proliferation; assay type: cell-based; conditions: for antiproliferative activity in pancreatic cancer cells: MiaPaCa-2, BXPC3, HupT3
[3] = tested on: GSK-3β activity (phosphorylation of glycogen synthase); test: Western immunoblot of glycogen synthase phosphorylation in cells; assay type: cell-based; conditions: BXPC3, 5 and 26 at 5 μM, 6-36 h, 27 at 5, 10, 20 μM
[4] = tested on: NFκB-mediated expression of XIAP; test: Western immunoblot of XIAP expression; assay type: cell-based; conditions: BXPC3; 5 and 26 at 5 μM; 27 up to 20 μM
[5] = tested on: pancreatic cancer cells (MiaPaCa-2, BXPC3, HupT3); conditions: BXPC3, HupT3 and MiaPaCa-2; shown earlier; cited from earlier work

Cn1cc(C2=C(c3coc4cc(O)ccc34)C(=O)NC2=O)c2cc(F)ccc21 [Compound 4, 3-(5-Fluoro-1-methyl-1H-indol-3-yl)-4-(6-hydroxy-benzofuran-3-yl)-pyrrole-2,5-dione]
stability on storage (Storage stability at rt): Partially degradated after few weeks at rt

COc1cccc2c(C3=C(c4cn(C)c5cc(I)c(F)cc45)C(=O)NC3=O)coc12 [Compound 5, 3-(5-Fluoro-6-iodo-1-methyl-1H-indol-3-yl)-4-(7-methoxy-benzofuran-3-yl)-pyrrole-2,5-dione]
apoptosis / survival of pancreatic cancer cells [1]: significant apoptosis | antiproliferative activity in pancreatic cancer cells [2]: good antiproliferative activity | concentrations showing significant anticancer activity ([2]; pancreatic cancer cells): 1 to 5 µM | GSK-3β activity in cells (GS phosphorylation) [3]: effectively inhibited | NFκB-mediated expression of XIAP [4]: pronounced decrease

Cn1cc(C2=C(c3coc4ccccc34)C(=O)NC2=O)c2cc(F)c(Cl)cc21 [Compound 6, 3-Benzofuran-3-yl-4-(6-chloro-5-fluoro-1-methyl-1H-indol-3-yl)-pyrrole-2,5-dione]
antiproliferative activity in pancreatic cancer cells [2]: good antiproliferative activity

COc1cccc2c(C3=C(c4cn(C)c5cc(Cl)c(F)cc45)C(=O)NC3=O)coc12 [Compound 11, 3-(6-Chloro-5-fluoro-1-methyl-1H-indol-3-yl)-4-(7-methoxy-benzofuran-3-yl)-pyrrole-2,5-dione]
antiproliferative activity in pancreatic cancer cells [2]: good antiproliferative activity

Cn1cc(C2=C(c3coc4ccccc34)C(=O)NC2=O)c2cc(Br)ccc21 [Compound 13]
antiproliferative activity in pancreatic cancer cells [2]: little or no inhibitory activity

C#CCOc1ccc2c(C3=C(c4cn(C)c5ccc(Br)cc45)C(=O)NC3=O)coc2c1 [Compound 16, 3-(5-Bromo-1-methyl-1H-indol-3-yl)-4-(6-prop-2-ynyloxy-benzofuran-3-yl)-pyrrole-2,5-dione]
stability on storage (Storage stability at rt): Partially degradated after few weeks at rt

COc1cccc2c(C3=C(c4cn(C)c5c(Br)cc(Br)cc45)C(=O)NC3=O)coc12 [Compound 20, 3-(5,7-Dibromo-1-methyl-1H-indol-3-yl)-4-(7-methoxy-benzofuran-3-yl)-pyrrole-2,5-dione]
antiproliferative activity in pancreatic cancer cells [2]: good antiproliferative activity

Cn1cc(C2=C(c3coc4ccccc34)C(=O)NC2=O)c2cc(I)ccc21 [Compound 21, 3-Benzofuran-3-yl-4-(5-iodo-1-methyl-1H-indol-3-yl)-pyrrole-2,5-dione]
antiproliferative activity in pancreatic cancer cells [2]: little or no inhibitory activity

Cn1cc(C2=C(c3coc4ccc(F)cc34)C(=O)NC2=O)c2cc(I)ccc21 [Compound 22, 3-(5-Fluoro-benzofuran-3-yl)-4-(5-iodo-1-methyl-1H-indol-3-yl)-pyrrole-2,5-dione]
antiproliferative activity in pancreatic cancer cells [2]: little or no inhibitory activity

Cn1cc(C2=C(c3coc4ccc(F)cc34)C(=O)NC2=O)c2cc(C#CC3CC3)ccc21 [Compound 25, 3-(5-Cyclopropylethynyl-1-methyl-1H-indol-3-yl)-4-(5-fluoro-benzofuran-3-yl)-pyrrole-2,5-dione]
antiproliferative activity in pancreatic cancer cells [2]: little or no inhibitory activity

Cn1cc(C2=C(c3coc4ccc(F)cc34)C(=O)NC2=O)c2cc3c(cc21)OCO3 [Compound 26, 3-(5-Fluoro-benzofuran-3-yl)-4-(5-methyl-5H-[1,3]dioxolo[4,5-f]indol-7-yl)-pyrrole-2,5-dione]
apoptosis / survival of pancreatic cancer cells [1]: significant apoptosis | antiproliferative activity in pancreatic cancer cells [2]: good antiproliferative activity | GSK-3β activity in cells (GS phosphorylation) [3]: effectively inhibited | NFκB-mediated expression of XIAP [4]: pronounced decrease

COc1cc2c(C3=C(c4coc5ccccc45)C(=O)NC3=O)cn(C)c2cc1Cl [Compound 27, 3-Benzofuran-3-yl-4-(6-chloro-5-methoxy-1-methyl-1H-indol-3-yl)-pyrrole-2,5-dione]
apoptosis / survival of pancreatic cancer cells [1]: did not affect | antiproliferative activity in pancreatic cancer cells [2]: did not affect; also recorded: little or no inhibitory activity | GSK-3β activity in cells (GS phosphorylation) [3]: did not affect | NFκB-mediated expression of XIAP [4]: no such effect

COCc1cccc2c(C3=C(c4coc5ccccc45)C(=O)NC3=O)cn(C)c12 [Compound 33, 3-Benzofuran-3-yl-4-(7-methoxymethyl-1-methyl-1H-indol-3-yl)-pyrrole-2,5-dione]
antiproliferative activity in pancreatic cancer cells [2]: little or no inhibitory activity

COc1ccc(CNC(=O)Nc2ncc([N+](=O)[O-])s2)cc1 [Compound 77]
pancreatic cancer cell proliferation [5]: significant decrease

Cn1cc(C2=C(c3ccc(Cl)cc3Cl)C(=O)NC2=O)c2ccccc21 [Compound 78]
pancreatic cancer cell proliferation [5]: significant decrease
